# Experimental data from PMC7333345, “nanoDSF: In vitro Label-Free Method to Monitor Picornavirus Uncoating and Test Compounds Affecting Particle Stability” (Frontiers in Microbiology, 2020).
# Target: T1, RV-A2 (native virion capsid; VP1 hydrophobic pocket) (rhinovirus A2, UniProt P04936)
# T1 construct: native purified virion (propagated virus, monolithic chromatography); 60 copies each of VP1-VP4 cut from the genome polyprotein; VP4 68 aa; with Capsid protein VP2; Capsid protein VP3; Capsid protein VP4
# Test: nanoDSF (intrinsic tryptophan fluorescence, Em350/Em330 ratio)
# Assay type: binding
# Conditions: 1 mM pleconaril, 2% DMSO, PBS, 1 °C/min, RV-A2 0.5 mg/ml (1 mg/ml in Figure 3 legend), whole virion, against DMSO control
# T1 sequence (P04936 2-850): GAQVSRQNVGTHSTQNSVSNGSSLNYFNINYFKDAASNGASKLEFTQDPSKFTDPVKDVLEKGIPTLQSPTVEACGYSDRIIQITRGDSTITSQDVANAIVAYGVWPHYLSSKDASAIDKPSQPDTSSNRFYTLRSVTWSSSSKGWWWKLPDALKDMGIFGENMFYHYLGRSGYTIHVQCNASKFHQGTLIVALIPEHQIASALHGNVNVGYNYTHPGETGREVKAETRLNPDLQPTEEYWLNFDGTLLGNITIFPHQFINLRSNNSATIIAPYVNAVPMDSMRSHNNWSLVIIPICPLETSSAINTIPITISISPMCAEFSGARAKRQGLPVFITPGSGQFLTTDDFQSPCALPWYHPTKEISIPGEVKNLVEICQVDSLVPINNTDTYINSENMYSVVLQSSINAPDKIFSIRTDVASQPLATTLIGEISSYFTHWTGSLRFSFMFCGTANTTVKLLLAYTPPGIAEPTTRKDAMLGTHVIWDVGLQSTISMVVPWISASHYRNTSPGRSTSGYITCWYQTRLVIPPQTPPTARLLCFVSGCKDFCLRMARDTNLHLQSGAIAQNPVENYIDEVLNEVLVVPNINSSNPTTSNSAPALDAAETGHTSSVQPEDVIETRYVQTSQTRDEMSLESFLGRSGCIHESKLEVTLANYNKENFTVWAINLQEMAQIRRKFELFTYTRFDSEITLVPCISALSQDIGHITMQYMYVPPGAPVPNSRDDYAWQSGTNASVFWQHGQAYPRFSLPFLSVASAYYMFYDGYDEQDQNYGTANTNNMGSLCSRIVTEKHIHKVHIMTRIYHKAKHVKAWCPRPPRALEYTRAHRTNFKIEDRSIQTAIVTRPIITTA
smiles,measurement,value
Cc1cc(CCCOc2c(C)cc(-c3noc(C(F)(F)F)n3)cc2C)on1 [pleconaril],shift of TA (50% N to A particle conversion),5 °C
